Results: ChEMBL document CHEMBL5620349, “Recent advance of small-molecule drugs for clinical treatment of multiple myeloma” (Eur J Med Chem, 2023)
Counter-ions that a name gives are not always drawn. Values belong to the compound of their own block, whether it stands above or below them.

Experiments:
[1] = target: Beta-2 adrenergic receptor (Homo sapiens, UniProt P07550); experiment: Agonist activity at Adrenergic beta2 receptor (unknown origin); format: functional
[2] = target: Nuclear factor NF-kappa-B complex (Homo sapiens, UniProt P19838+Q00653+Q04206); experiment: Inhibition of NF-kappaB (unknown origin); format: protein-complex assay
[3] = Inhibition of 20s proteasome beta2 (unknown origin) mediated […] activity; set-up: species or system Homo sapiens
[4] = Inhibition of 20s proteasome beta1 (unknown origin) mediated […] activity; set-up: species or system Homo sapiens
[5] = test system: Human immunodeficiency virus 2; experiment: Antiviral activity against HIV-2
Protein smoothened [6] = target: Protein smoothened (Mus musculus, UniProt P56726); experiment: Antagonist activity at mouse SMO
Protein smoothened [7] = target: Protein smoothened (Homo sapiens, UniProt Q99835); experiment: Antagonist activity at human SMO
Sequence of Protein smoothened (Homo sapiens, UniProt Q99835) (Q99835 whole entry): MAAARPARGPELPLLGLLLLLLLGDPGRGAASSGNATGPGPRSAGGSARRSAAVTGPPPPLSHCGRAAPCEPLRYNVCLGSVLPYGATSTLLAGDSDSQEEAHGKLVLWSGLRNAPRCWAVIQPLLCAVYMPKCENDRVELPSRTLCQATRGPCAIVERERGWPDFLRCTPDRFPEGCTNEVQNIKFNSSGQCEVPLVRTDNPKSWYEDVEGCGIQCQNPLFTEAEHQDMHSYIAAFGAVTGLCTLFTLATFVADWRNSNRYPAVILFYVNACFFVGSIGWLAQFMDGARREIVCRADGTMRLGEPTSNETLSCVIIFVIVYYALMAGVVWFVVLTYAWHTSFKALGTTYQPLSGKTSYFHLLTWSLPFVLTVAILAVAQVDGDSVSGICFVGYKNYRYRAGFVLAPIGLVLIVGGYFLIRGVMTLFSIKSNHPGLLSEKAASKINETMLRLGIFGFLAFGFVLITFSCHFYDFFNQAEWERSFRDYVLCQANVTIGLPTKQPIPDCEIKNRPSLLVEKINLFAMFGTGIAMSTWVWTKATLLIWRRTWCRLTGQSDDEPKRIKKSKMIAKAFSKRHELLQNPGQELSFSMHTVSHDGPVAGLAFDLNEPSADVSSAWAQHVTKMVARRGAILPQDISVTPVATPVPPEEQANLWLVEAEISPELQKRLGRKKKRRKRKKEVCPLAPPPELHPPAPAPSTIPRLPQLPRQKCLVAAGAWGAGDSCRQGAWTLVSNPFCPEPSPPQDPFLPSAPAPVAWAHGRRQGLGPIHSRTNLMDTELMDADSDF

Sequence of Nuclear factor NF-kappa-B complex (P19838 1-433 limits assumed): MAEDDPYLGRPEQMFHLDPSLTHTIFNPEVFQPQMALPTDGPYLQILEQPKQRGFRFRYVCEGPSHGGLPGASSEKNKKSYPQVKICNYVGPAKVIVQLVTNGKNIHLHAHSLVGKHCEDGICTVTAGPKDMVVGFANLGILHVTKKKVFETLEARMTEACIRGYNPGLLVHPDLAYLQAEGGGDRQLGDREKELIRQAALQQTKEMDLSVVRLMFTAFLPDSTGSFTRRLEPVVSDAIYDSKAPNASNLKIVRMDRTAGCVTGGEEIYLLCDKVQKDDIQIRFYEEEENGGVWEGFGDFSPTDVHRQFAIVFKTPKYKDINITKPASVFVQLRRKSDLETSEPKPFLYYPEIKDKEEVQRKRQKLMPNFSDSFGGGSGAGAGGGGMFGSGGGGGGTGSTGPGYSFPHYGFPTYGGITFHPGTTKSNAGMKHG
Sequence of Nuclear factor NF-kappa-B complex (Q00653 1-454 limits assumed): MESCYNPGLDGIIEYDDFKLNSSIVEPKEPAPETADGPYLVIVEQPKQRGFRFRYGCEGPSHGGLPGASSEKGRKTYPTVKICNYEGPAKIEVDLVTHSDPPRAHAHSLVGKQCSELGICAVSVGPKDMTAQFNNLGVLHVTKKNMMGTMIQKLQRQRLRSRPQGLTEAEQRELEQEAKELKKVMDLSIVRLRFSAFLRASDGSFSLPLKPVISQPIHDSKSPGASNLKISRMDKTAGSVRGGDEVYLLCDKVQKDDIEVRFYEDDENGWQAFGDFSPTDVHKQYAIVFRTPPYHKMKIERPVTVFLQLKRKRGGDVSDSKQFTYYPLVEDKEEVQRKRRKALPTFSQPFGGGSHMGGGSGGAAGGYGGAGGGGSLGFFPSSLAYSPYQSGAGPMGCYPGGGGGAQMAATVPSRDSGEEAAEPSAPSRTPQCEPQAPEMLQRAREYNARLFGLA
Sequence of Nuclear factor NF-kappa-B complex (Q04206 whole entry): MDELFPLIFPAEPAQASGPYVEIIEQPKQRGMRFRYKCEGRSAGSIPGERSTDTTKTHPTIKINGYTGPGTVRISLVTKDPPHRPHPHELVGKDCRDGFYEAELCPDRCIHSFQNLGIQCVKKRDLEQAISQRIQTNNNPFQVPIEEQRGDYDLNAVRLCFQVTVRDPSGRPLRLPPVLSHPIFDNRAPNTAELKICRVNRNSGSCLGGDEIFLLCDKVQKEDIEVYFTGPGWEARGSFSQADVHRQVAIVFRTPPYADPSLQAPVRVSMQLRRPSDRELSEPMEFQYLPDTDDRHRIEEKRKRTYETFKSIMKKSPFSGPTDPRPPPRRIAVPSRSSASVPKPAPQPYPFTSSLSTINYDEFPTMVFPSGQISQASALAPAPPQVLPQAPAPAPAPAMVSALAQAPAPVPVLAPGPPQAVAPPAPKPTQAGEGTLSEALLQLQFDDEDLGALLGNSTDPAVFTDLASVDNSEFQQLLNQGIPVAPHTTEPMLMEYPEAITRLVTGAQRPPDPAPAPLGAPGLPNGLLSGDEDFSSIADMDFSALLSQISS
Sequence of Beta-2 adrenergic receptor (P07550 whole entry): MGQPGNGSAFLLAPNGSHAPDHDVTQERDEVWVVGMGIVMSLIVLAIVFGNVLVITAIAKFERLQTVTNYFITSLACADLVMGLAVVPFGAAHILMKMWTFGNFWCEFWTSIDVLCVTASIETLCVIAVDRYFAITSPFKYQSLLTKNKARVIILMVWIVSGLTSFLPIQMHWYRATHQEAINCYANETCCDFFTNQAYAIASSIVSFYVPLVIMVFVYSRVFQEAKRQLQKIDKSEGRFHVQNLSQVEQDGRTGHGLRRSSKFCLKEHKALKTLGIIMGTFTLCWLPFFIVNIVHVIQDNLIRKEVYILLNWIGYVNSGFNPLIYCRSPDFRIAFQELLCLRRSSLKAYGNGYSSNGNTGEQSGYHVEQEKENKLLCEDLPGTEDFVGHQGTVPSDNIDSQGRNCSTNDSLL
Sequence of Protein smoothened (Mus musculus, UniProt P56726) (P56726 whole entry): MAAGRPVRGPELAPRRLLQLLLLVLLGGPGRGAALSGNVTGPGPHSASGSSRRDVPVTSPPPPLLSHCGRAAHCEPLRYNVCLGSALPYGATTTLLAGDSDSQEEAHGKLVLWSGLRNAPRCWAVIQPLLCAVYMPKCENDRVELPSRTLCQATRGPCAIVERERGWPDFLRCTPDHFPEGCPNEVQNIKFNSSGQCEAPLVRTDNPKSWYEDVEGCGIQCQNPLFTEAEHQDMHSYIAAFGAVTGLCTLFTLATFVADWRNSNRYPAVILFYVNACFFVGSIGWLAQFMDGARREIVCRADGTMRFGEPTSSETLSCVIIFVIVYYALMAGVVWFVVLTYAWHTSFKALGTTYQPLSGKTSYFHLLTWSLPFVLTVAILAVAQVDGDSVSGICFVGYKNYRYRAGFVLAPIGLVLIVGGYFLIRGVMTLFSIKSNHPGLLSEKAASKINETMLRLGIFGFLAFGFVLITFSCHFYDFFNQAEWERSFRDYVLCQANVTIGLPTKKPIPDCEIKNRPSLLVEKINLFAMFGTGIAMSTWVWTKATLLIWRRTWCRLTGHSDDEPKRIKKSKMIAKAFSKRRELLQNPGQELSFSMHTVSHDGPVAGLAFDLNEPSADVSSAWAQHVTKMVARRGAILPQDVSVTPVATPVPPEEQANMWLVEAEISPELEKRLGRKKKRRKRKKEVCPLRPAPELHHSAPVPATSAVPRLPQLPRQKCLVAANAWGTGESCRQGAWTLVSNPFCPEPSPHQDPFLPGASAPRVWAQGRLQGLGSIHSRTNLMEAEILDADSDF

- EC50 [1]: 2.2 nM
- IC50 [2]: 0.5 nM
SMILES: C[C@@H]1C[C@H]2[C@@H]3CCC4=CC(=O)C=C[C@]4(C)[C@@]3(F)[C@@H](O)C[C@]2(C)[C@@]1(O)C(=O)CO [DEXAMETHASONE]

SMILES: CC(C)C[C@H](NC(=O)CNC(=O)c1cc(Cl)ccc1Cl)B1OC(=O)C(CC(=O)O)(CC(=O)O)O1 [IXAZOMIB CITRATE]
- IC50 [3]: 3500 nM
- IC50 [4]: 31 nM

- EC50 [5]: 1 nM
SMILES: c1cc(CN2CCCNCCNCCCNCC2)ccc1CN1CCCNCCNCCCNCC1 [PLERIXAFOR]

- IC50 (Protein smoothened [6]): 1.3 nM
- IC50 (Protein smoothened [7]): 2.5 nM
SMILES: Cc1c(C(=O)Nc2ccc(N3C[C@@H](C)O[C@@H](C)C3)nc2)cccc1-c1ccc(OC(F)(F)F)cc1 [SONIDEGIB PHOSPHATE]
